This is an account of results in publication PMC5979965, “Structure-based discovery of mPGES-1 inhibitors suitable for preclinical testing in wild-type mice as a new generation of anti-inflammatory drugs” (Scientific Reports, 2018).

The structures appear in SMILES notation. Like-named read-outs stand apart in the source and are kept apart here.

One data set deals with PGE2 levels in kidney. Put plainly: Wild-type mice based air-pouch model of inflammation (carrageenan), PGE2 by ELISA. The following applies: for PGE2 levels in mice (kidney): 24 hours, vs vehicle. Background: ELISA stands for enzyme-linked immunosorbent assay.
Data set [1] relates to mice. As to the kind of experiment: Acute toxicity/safety testing in mice after PO administration.
Method: (§5) Animals. Wild-type CD-1 mice (28-35 g) were ordered from Harlan (Indianapolis, IN), and housed
(§6) for a week prior to the experimental studies. All animals were allowed ad libitum access to food and water
(§7) and maintained on a 12 h light/12 h dark cycle, with the lights on at 8:00 am at a room temperature of 21–
(§8) 22 °C. Experiments were performed in a same colony room in accordance with the Guide for the Care and
(§9) Use of Laboratory Animals as adopted and promulgated by the National Institutes of Health. The animal
(§10) protocol was approved by the IACUC (Institutional Animal Care and Use Committee) at the University
(§11) Preparation of pictures during acute toxicity testing. Mice were divided into three groups and
(§12) treated with oral administration of a single dose of vehicle (Wesson vegetable oil, Memphis, TN), 4b (250
(§13) mg/mL in Wesson vegetable oil at the dose of 1 g/kg), and celecoxib (12.5 mg/mL in Wesson vegetable
Data set [2] addresses T1, mouse mPGES-1 (Mus musculus, UniProt Q9JM51).
T1 construct: made in house; host or cells: FreeStyle 293-F cells, mPGES-1/pcDNA3 construct, crude microsomal preparation
T1 sequence (Q9JM51 1-153): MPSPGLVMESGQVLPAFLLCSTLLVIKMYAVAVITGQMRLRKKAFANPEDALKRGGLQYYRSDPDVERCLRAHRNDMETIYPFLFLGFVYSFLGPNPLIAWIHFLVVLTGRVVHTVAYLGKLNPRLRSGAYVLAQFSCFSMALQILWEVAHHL
As to the kind of experiment: Activity assay using recombinant mouse mPGES-1 (PGE2 enzyme immunoassay). The data set is classed as biochemical. An excerpt:
Our protocols for the protein preparation and in vitro activity assays were the same as described in previous reports[39],[41]–[43]. […] For the structure-activity relationship (SAR), we first investigated the impact of substitution on the central benzene ring on the inhibitory potency. […] The central benzene rings of 4i was originated from salicylaldehydes with chlorine substituted on 5-position. […] The length of the alkoxy side chain was also inspected in compounds 4b and 6.
(§1) 3. In vitro experimental tests
(§2) Preparation of mPGES-1 enzymes. Cloning of mPGES-1 and the protein preparation were described in our previous reports.15 Briefly, FreeStyle Max Expression system was used to express wild -type human and mouse mPGES-1 enzymes separately. FreeStyle 293-F cells were cultured following manufacturer’s manual in FreeStyle 293 expression medium on orbit rotate shaker in 8% CO 2 incubator at 37 °C. Cells were transfected with 1.5 µg/mL of mPGES-1/pcDNA3 construct using FreeStyle Max reagent at a cell density of 1 × 106 for 2 days. Transfected cells were collected, washed, and sonicated in TSES buffer (15 mM Tris-HCl, pH 8.0 plus 0.25 M sucrose, 0.1 mM EDTA and 1 mM DTT) on ice. The broken cells were first centrifuged at 12,500 × g for 10 min. The supernatant was further centrifuged at 105,000 × g for 1 hr at 4 °C. The pellet was washed and homogenized in PBS buffer. The crude microsomal mPGES -1 preparations were aliquoted and stored at -80 °C before use.
(§3) PGH2 (stored in dry ice). […] After 1
(§4) Following the formation of […]

Another data set has as its target T2, human mPGES-1 (Homo sapiens, UniProt O14684).
T2 construct: made in house; host or cells: FreeStyle 293-F cells, mPGES-1/pcDNA3 construct, crude microsomal preparation
T2 sequence (O14684 1-152): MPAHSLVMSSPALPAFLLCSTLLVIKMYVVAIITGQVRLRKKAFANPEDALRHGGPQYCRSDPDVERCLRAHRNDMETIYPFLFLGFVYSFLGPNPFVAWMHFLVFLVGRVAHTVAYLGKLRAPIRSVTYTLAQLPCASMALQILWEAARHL
As to the kind of experiment: Activity assay using recombinant human mPGES-1 (PGE2 enzyme immunoassay). The class given is biochemical. As for the experimental part:
Our protocols for the protein preparation and in vitro activity assays were the same as described in previous reports[39],[41]–[43]. […] For the structure-activity relationship (SAR), we first investigated the impact of substitution on the central benzene ring on the inhibitory potency. […] The length of the alkoxy side chain was also inspected in compounds 4b and 6.
Purity was determined by HPLC (Waters 1525 Binary HPLC pump, Waters 2487 Dual λ Absorbance Detector, and Waters 717plus Autosampler, Milford, MA) at λ of […] using acetonitrile and 0.1% […]
TFA (70:30) as mobile phase.
as §1, §2, §3, §4

Data set [3] has as its target T1, mouse mPGES-1. The following applies: cited from earlier work.
In a further data set the test system is rat enzyme (mPGES-1). The following applies: cited from earlier work.
In data set [4] the test system is mice. The following applies: mouse, in vivo, po, 50 mg/kg.
Method: as §5, §6, §7, §8, §9, §10, §11, §12, §13
The mark [5] stands for this setting: IC50 (nM) against mPGES-1, Mouse mPGES-1, Mean ± SD of measurements in triplicate.

Broadly, the IC50 is the concentration that inhibits the measured activity by half. Take `O=C1NC(=O)C(=Cc2ccc(OCCCCC3CCCCC3)c(Cl)c2)C(=O)N1` [Compound 4b]: the “PGE2 levels in mice (kidney)” value with PGE2 levels in kidney (PO, 5 mg/kg single dose) is listed as “significantly decreased”; with PGE2 levels in kidney (PO, 10 mg/kg single dose) it was “significantly decreased”; in the data set on PGE2 levels in kidney (SC, 0.1 mg/kg single dose) it was “significantly decreased”; with PGE2 levels in kidney (SC, 1 mg/kg single dose) it was “significantly decreased”; in the data set with PGE2 levels in kidney (SC, 10 mg/kg single dose), “significantly decreased”. Further, the oral bioavailability result in the data set on PGE2 levels in kidney (inferred from PO activity in mice) is reported as “orally bioavailable”. Besides, in the data set on mice [1] (24 hr after PO, 1 g/kg in oil), the “bleeding spots on the inner side of stomach samples” value is given as “did not find any bleeding spot”. Also, in the data set on mice [1] (PO, high dose up to 1 g/kg, observation for 14 days), the “toxic signs in mice” value is on record as “did not cause any toxic sign”. Further, the IC50 at mouse mPGES-1 [2] (setting [5]) was 157 ± 31 nM; at human mPGES-1, 0.033 ± 0.003 µM.

In the case of `O=C1NC(=O)C(=Cc2cc(Cl)ccc2OCCCCC2CCCCC2)C(=O)N1` [Compound 4i], the IC50 on mouse mPGES-1 [2] (setting [5]) was 19100 ± 3490 nM; on mouse mPGES-1 [2] (IC50 against the mouse enzyme), > 10000 nM; on human mPGES-1, 0.087 ± 0.027 µM.

For the molecule `O=C1NC(=O)C(=Cc2ccc(OCCCC3CCCCC3)c(Cl)c2)C(=O)N1` [Compound 6], the concentration for half-maximal inhibition (IC50) on mouse mPGES-1 [2] (setting [5]) stood at 292 ± 47 nM; on human mPGES-1 it was 0.069 ± 0.016 µM.

As to `N#Cc1cccc(C#N)c1-c1nc2c3ccc(Cl)cc3c3ccccc3c2[nH]1` [MF63, 2-(6-chloro-1H-phenanthro[9,10-d]imidazol-2-yl)-isophthalonitrile], the “activity against the mouse enzyme, previously reported” value at mouse mPGES-1 [3] was “without significant activity”. Also, in the data set on rat enzyme (mPGES-1), the “activity against the rat enzyme, previously reported” value is “without significant activity”. Moreover, at mouse mPGES-1 [2] (10 µM), the “inhibition against mouse mPGES-1 at 10 µM” value is given as “no significant inhibition”.

On to `CC(C)c1ccc2c(c1)c(SC(C)(C)C)c(CC(C)(C)C(=O)O)n2Cc1ccc(Cl)cc1` [MK-886, reference compound], for which the “inhibition of mouse mPGES-1” value at mouse mPGES-1 [2] (concentration not given) is “without significant inhibition”.

With `Cc1ccc(-c2cc(C(F)(F)F)nn2-c2ccc(S(N)(=O)=O)cc2)cc1` [celecoxib], in the data set with mice [4], the “bleeding spots on the inner side of stomach samples” value is “at least one bleeding spot”; the “finding at gastric mucosa” value is reported as “bleeding ulcer was observed”; the toxicity in mice entry is “very toxic for stomach and other issues of mice”.
